Experimental findings from patent US20090099192A1, “Substituted 1H-pyrrole-2,5-diones” (Bayer CropScience AG, priority 2004, published 2009) are described below.

The subject of one data set is larvae of the mustard beetle (Phaedon cochleariae). Nature of the data set: Phaedon test (spray treatment).
Details: not given
The class given is in vivo. How it is done:
[table] To produce a suitable preparation of active compound, 1 part by weight of active compound is mixed with the stated amounts of solvents and emulsifier, and the concentrate is diluted with emulsifier-containing water to the desired concentration. Disks of Chinese cabbage (Brassica pekinensis) are sprayed with an active compound preparation of the desired concentration and, after drying, populated with larvae of the mustard beetle (Phaedon cochleariae). After the desired period of time, the effect in % is determined. 100% means that all beetle larvae have been killed; 0% means that none of the beetle larvae have been killed.
Consider `CC1(C)CC(N2C(=O)C(O)=C(c3ccccc3Cl)C2=O)CC(C)(C)C1` [Example 200], for which the “activity in the Phaedon test (spray treatment)” value was “good activity”.

The same data set, now with this note: 500 g/ha, spray, Brassica pekinensis disks.
As to `CC1(C)CC(N2C(=O)C(O)=C(c3ccccc3Cl)C2=O)CC(C)(C)C1` [Example 200], the “Kill rate in % after 7 d” value came out at 100%.

Test system in a further data set: not listed separately
Nature of the data set: logP determination by HPLC on reversed-phase column (C 18), EEC Directive 79/831 Annex V.A8. It is filed as physicochemical. The following applies: reversed-phase C 18, 43° C., acid range (0.1% aqueous phosphoric acid, acetonitrile), marked a). Here is the method: a) The logP values given in table 1 were determined in accordance with EEC Directive 79/831 Annex V.A8 by HPLC (High Performance Liquid Chromatography) on a reversed-phase column (C 18). Temperature: 43° C. (a) Mobile phases for the determination in the acid range: 0.1% aqueous phosphoric acid, acetonitrile; linear gradient from 10% acetonitrile to 90% acetonitrile—corresponding measurement results are marked a) in table 1. Calibration was carried out using unbranched alkan-2-ones (having 3 to 16 carbon atoms) with known logP values (determination of the logP values by the retention times using linear interpolation between two successive alkanones).
Consider `O=C1C(O)=C(c2cccc(C(F)(F)F)c2)C(=O)N1Cc1cc(Cl)cc(Cl)c1` [Example 112], for which the logP result is given as “logP = 4.27^a)”.

With `O=C1C(O)=C(c2ccc(OC(F)(F)F)cc2)C(=O)N1Cc1cc(Cl)cc(Cl)c1` [Example 113], the logP result is given as “logP = 4.67^a)”.

For the molecule `N#Cc1ccc(C2=C(O)C(=O)N(Cc3cc(Cl)cc(Cl)c3)C2=O)cc1` [Example 114], the logP entry is reported as “logP = 2.94^a)”.

For `O=C1C(O)=C(c2ccc(Cl)cc2)C(=O)N1Cc1cc(Cl)cc(Cl)c1` [Example 115], the logP result is reported as “logP = 4.48^a)”.

Turning to `O=C1C(O)=C(c2ccc(C(F)(F)F)cc2)C(=O)N1Cc1cc(Cl)cc(Cl)c1` [Example 116], the logP result was “logp = 4.18^a)”.

Regarding `O=C1C(O)=C(c2cccc(OC(F)(F)F)c2)C(=O)N1Cc1cc(Cl)cc(Cl)c1` [Example 117], the logP entry was “logP = 4.45^a)”.

Consider `O=C1C(O)=C(c2cc(Cl)cc(Cl)c2)C(=O)N1Cc1cc(Cl)cc(Cl)c1` [Example 118], for which the logP entry is “logP = 4.21^a)”.

Consider `Cc1ccc(C2=C(O)C(=O)N(Cc3cc(Cl)cc(Cl)c3)C2=O)cc1` [Example 119], for which the logP entry is “logp = 4.42^a)”.

`Cc1ccc(-c2ccc(Cl)cc2)cc1C1=C(O)C(=O)N(C(C)c2ccc(Cl)cc2)C1=O` (stereo not shown) [Example 120]: the logP result is given as “logP = 4.94^a)”.

As to `Cc1ccc(-c2ccc(Cl)cc2)cc1C1=C(O)C(=O)N(Cc2ccc(Cl)cc2Cl)C1=O` [Example 121], the logP result is given as “logP = 5.03^a)”.

`Cc1ccc(-c2ccc(Cl)cc2)cc1C1=C(O)C(=O)N(C(C)C)C1=O` [Example 122]: the logP result is given as “logP = 4.08^a)”.

Consider `Cc1ccc(-c2ccc(Cl)cc2)cc1C1=C(O)C(=O)N(Cc2cccc(Cl)c2)C1=O` [Example 123], for which the logP entry is “logP = 4.61^a)”.

Regarding `Cc1ccc(-c2ccc(Cl)cc2)cc1C1=C(O)C(=O)N(c2c(F)cccc2F)C1=O` [Example 124], the logP entry was “logP = 3.85^a)”.

Regarding `Cc1ccc(-c2ccc(Cl)cc2)cc1C1=C(O)C(=O)N(CC2CC2)C1=O` [Example 125], the logP result was “logP = 4.08^a)”.

As to `Cc1ccc(-c2ccc(Cl)cc2)cc1C1=C(O)C(=O)N(c2ccc(Cl)cc2Cl)C1=O` [Example 126], the logP result was “logP = 4.51^a)”.

On to `Cc1ccc(-c2ccc(Cl)cc2)cc1C1=C(O)C(=O)N(c2c(Cl)cc(Cl)cc2Cl)C1=O` [Example 127], for which the logP result was “logP = 4.75^a)”.

Consider `Cc1ccc(-c2ccc(Cl)cc2)cc1C1=C(O)C(=O)N(Cc2cccc(C(F)(F)F)c2)C1=O` [Example 128], for which the logP result is “logP = 4.65^a)”.

Take `Cc1ccc(-c2ccc(Cl)cc2)cc1C1=C(O)C(=O)N(c2ccccc2Cl)C1=O` [Example 129]: the logP entry is reported as “logP = 4.03^a)”.

For `Cc1ccc(-c2ccc(Cl)cc2)cc1C1=C(O)C(=O)N(Cc2ccccc2OC(F)(F)F)C1=O` [Example 133], the logP result is on record as “logP = 4.75^a)”.

In the case of `Cc1ccc(-c2ccc(Cl)cc2)cc1C1=C(O)C(=O)N(Cc2ccc(OC(F)(F)F)cc2)C1=O` [Example 134], the logP result is “logP = 4.84^a)”.

Take `Cc1ccc(-c2ccc(Cl)cc2)cc1C1=C(O)C(=O)N(c2c(Cl)cccc2Cl)C1=O` [Example 135]: the logP result was “logP = 4.18^a)”.

On to `Cc1ccc(-c2ccc(Cl)cc2)cc1C1=C(O)C(=O)N(C(C)(C)C)C1=O` [Example 137], for which the logP result is “logP = 4.51^a)”.

On to `Cc1ccc(-c2ccc(Cl)cc2)cc1C1=C(O)C(=O)N(CC(C)(C)C)C1=O` [Example 138], for which the logP entry was “logP = 4.61^a)”.

On to `Cc1ccc(-c2ccc(Cl)cc2)cc1C1=C(O)C(=O)N(Cc2cc(Cl)ccc2Cl)C1=O` [Example 139], for which the logP result was “logP = 4.84^a)”.

For the molecule `Cc1ccc(-c2ccc(Cl)cc2)cc1C1=C(O)C(=O)N(Cc2c(Cl)cccc2Cl)C1=O` [Example 140], the logP entry was “logP = 4.70^a)”.

For `Cc1ccc(-c2ccc(Cl)cc2)cc1C1=C(O)C(=O)N(C(C)(C)c2ccccc2Cl)C1=O` [Example 142], the logP result is “logP = 4.80^a)”.

For `Cc1ccc(-c2ccc(Cl)cc2)cc1C1=C(O)C(=O)N(C(C)(C)c2cccc(Cl)c2)C1=O` [Example 143], the logP result is “logP = 4.99^a)”.

For `N#Cc1ccc(C2=C(O)C(=O)N(c3ccc(C(F)(F)F)cc3F)C2=O)cc1` [Example 144], the logP entry is on record as “logP = 6.09^a)”.

For `Cc1ccc(-c2ccc(Cl)cc2)cc1C1=C(O)C(=O)N(c2ccccc2F)C1=O` [Example 145], the logP entry is “logP = 4.94^a)”.

Consider `Cc1ccc(-c2ccc(Cl)cc2)cc1C1=C(O)C(=O)N(c2cc(F)ccc2F)C1=O` [Example 146], for which the logP entry is “logP = 4.51^a)”.

`CCOC(=O)C1CCCC(N2C(=O)C(O)=C(c3ccccc3Cl)C2=O)C1` (stereo not shown) [Example 150]: the logP result is recorded as “logP = 3.01^a)”.

Turning to `CCCCOC1CCCC(N2C(=O)C(O)=C(c3ccccc3Cl)C2=O)C1` (stereo not shown) [Example 152], the logP entry is “logP = 3.70^a)”.

For `CCCCOC1CCCC(N2C(=O)C(O)=C(c3ccccc3Cl)C2=O)C1` (stereo not shown) [Example 153], the logP result was “logP = 4.09^a)”.

Turning to `O=C1C(O)=C(c2ccccc2Cl)C(=O)N1C1CCOCC1` [Example 154], the logP entry is on record as “logP = 1.94^a)”.

Turning to `CC(C)(C)OC(=O)N1CCCC(N2C(=O)C(O)=C(c3ccccc3Cl)C2=O)C1` (stereo not shown) [Example 155], the logP result is “logP = 3.18^a)”.

`CC(C)(C)C(=O)OC1=C(c2ccccc2Cl)C(=O)N(C2CCOCC2)C1=O` [Example 156]: the logP entry is given as “logP = 3.87 ^a)”.

Take `N#CC1(N2C(=O)C(O)=C(c3ccccc3Cl)C2=O)CCCCC1` [Example 157]: the logP result is listed as “logP = 2.72^a)”.

Take `CC1CCCC(C#N)(N2C(=O)C(O)=C(c3ccccc3Cl)C2=O)C1` (stereo not shown) [Example 158]: the logP entry was “logP = 3.06^a)”.

For `CC1CC(N2C(=O)C(O)=C(c3ccccc3Cl)C2=O)CC(C)(C)C1` (stereo not shown) [Example 159], the logP entry is on record as “logP = 4.18^a)”.

Take `CC1(C)CC(N2C(=O)C(O)=C(c3ccccc3Cl)C2=O)CC(C)(C)C1` [Example 160]: the logP entry is listed as “logP = 4.41^a)”.

As to `O=C1C(O)=C(c2ccccc2Cl)C(=O)N1C12CC3CC(CC(C3)C1)C2` [Example 161], the logP entry is on record as “logP = 4.20^a)”.

For the molecule `CC1CCCC(N2C(=O)C(O)=C(c3ccccc3Cl)C2=O)C1` (stereo not shown) [Example 162], the logP entry is reported as “logP = 3.57^a)”.

For `CC1CCCC(N2C(=O)C(O)=C(c3ccccc3Br)C2=O)C1` (stereo not shown) [Example 163], the logP result is listed as “logP = 3.61^a)”.

On to `O=C1C(O)=C(c2ccccc2Cl)C(=O)N1c1ncc(C(F)(F)F)s1` [Example 164], for which the logP result is recorded as “logP = 3.14^a)”.

Turning to `COC(=O)C1(N2C(=O)C(O)=C(c3ccccc3Cl)C2=O)CCCCC1` [Example 165], the logP result is reported as “logP = 3.10^a)”.

In the case of `COC(=O)C1(N2C(=O)C(O)=C(c3ccccc3Cl)C2=O)CCCC(C)C1` (stereo not shown) [Example 166], the logP entry was “logP = 3.48^a)”.

`CCOC(=O)C1(N2C(=O)C(O)=C(c3ccccc3Cl)C2=O)CCCCC1` [Example 167]: the logP entry is “logP = 3.40^a)”.

Consider `CCOC(=O)C1(N2C(=O)C(O)=C(c3ccccc3Cl)C2=O)CCCC(C)C1` (stereo not shown) [Example 168], for which the logP entry is on record as “logP = 3.78^a)”.

For the molecule `CCOC(=O)C1(N2C(=O)C(OC(=O)C(C)(C)C)=C(c3ccccc3Cl)C2=O)CCCCC1` [Example 169], the logP result is on record as “logP = 5.50^a)”.

Take `CCOC(=O)C1(N2C(=O)C(OC(=O)C(C)(C)C)=C(c3ccccc3Cl)C2=O)CCCC(C)C1` (stereo not shown) [Example 170]: the logP entry was “logP = 5.85^a)”.

On to `CC1CCCC(C#N)(N2C(=O)C(OC(=O)C(C)(C)C)=C(c3ccccc3Cl)C2=O)C1` (stereo not shown) [Example 171], for which the logP result is “logP = 5.01^a)”.

For `CCOc1cccc(F)c1CN1C(=O)C(O)=C(c2ccc(C#N)cc2)C1=O` [Example 172], the logP result is listed as “logP = 2.61^a)”.

`CCOC(=O)C1CCCCC1N1C(=O)C(O)=C(c2c(C)cc(-c3ccc(Cl)cc3)cc2C)C1=O` (stereo not shown) [Example 174]: the logP entry was “logP = 4.87^a)”.

For the molecule `CC1CCCC(N2C(=O)C(O)=C(c3cccc(C(F)(F)F)c3)C2=O)C1` (stereo not shown) [Example 175], the logP entry is reported as “logP = 4.56^a)”.

In the case of `CCOC(=O)CCN1C(=O)C(O)=C(c2ccccc2Cl)C1=O` [Example 177], the logP entry was “logP = 2.21^a)”.

Turning to `CCOC(=O)CCN1C(=O)C(O)=C(c2cccc(OC(F)(F)F)c2)C1=O` [Example 178], the logP result is given as “logP = 3.95^a)”.

Take `CCOC(=O)CCN1C(=O)C(O)=C(c2cc(Cl)cc(Cl)c2)C1=O` [Example 179]: the logP entry is given as “logP = 2.80^a)”.

In the case of `CCOC(=O)CCN1C(=O)C(O)=C(c2ccc(C)cc2)C1=O` [Example 180], the logP result is “logP = 2.74^a)”.

Consider `CCOc1cccc(F)c1CN1C(=O)C(O)=C(c2c(C)cc(C)cc2C)C1=O` [Example 181], for which the logP result is reported as “logP = 3.68^a)”.

Consider `CCOc1cccc(F)c1CN1C(=O)C(O)=C(c2ccc(OC(F)(F)F)cc2)C1=O` [Example 182], for which the logP entry is recorded as “logP = 4.13^a)”.

As for `CCOc1cccc(F)c1CN1C(=O)C(O)=C(c2ccc(Cl)cc2)C1=O` [Example 183], the logP result is “logP = 3.85^a)”.

Turning to `CCOc1cccc(F)c1CN1C(=O)C(O)=C(c2ccc(C(F)(F)F)cc2)C1=O` [Example 184], the logP entry is “logP = 3.81^a)”.
